Measured values: ChEMBL document CHEMBL5223138, “Lead identification of novel tetrahydroimidazo[1,2-a]pyridine-5-carboxylic acid derivative as a potent heparanase-1 inhibitor” (Bioorg Med Chem Lett, 2023)

What was measured:
[1] = biological target: T1, Heparanase (Homo sapiens, UniProt Q9Y251); assay: Inhibition of Heparanase-1 (unknown origin) by HTRF method
T1 sequence (Q9Y251 whole entry): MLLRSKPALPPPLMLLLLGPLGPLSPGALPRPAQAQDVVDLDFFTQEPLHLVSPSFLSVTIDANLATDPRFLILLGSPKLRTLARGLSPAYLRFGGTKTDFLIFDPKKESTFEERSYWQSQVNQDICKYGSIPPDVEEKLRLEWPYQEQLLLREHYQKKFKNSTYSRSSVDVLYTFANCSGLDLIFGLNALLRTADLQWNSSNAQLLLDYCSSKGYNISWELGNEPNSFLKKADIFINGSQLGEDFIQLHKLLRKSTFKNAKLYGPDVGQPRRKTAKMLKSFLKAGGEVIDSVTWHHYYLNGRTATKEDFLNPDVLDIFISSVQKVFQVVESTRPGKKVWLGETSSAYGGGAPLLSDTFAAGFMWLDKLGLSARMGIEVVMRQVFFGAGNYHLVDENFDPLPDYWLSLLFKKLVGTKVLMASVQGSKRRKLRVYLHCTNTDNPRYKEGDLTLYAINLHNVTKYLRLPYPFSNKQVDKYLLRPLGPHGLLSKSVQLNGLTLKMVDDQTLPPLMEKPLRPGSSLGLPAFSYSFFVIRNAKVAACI

[2] = Binding affinity to bovine liver beta-glucuronidase; set-up: species or system Bos taurus

IC50 [1]	Ki [2]	SMILES
9.19 µM		CCCCCCCCCCCCCCCc1cc(O[C@@H]2O[C@H](C(=O)O)[C@@H](O)[C@H](O)[C@H]2O)cc(O)c1C(=O)Oc1cc(C)c(C(=O)O)c(O)c1
	0.012 µM	O=C(O)[C@@H]1[C@@H](O)[C@H](O)[C@@H](O)c2nccn21
3.41 µM		O=C(O)[C@@H]1[C@@H](O)[C@H](O)[C@@H](O)c2nc(CCc3ccc(C(F)(F)F)cc3)cn21
